From US20220213060A1, “Crystal Form of Quinazolinone Compound and Preparation Method Therefor” (Luoxin Healthcare Science and Technology Development …, priority 2019, published 2022)

Tests used:
[1] = target: T1, PI3Kα (Homo sapiens, UniProt P42336); test: In vitro enzymatic activity test (ADP-Glo lipid kinase), PI3Kα wild type; type: biochemical; conditions: wild-type PI3Kα kinase; read-out: Wild type PI3Kα IC50
T1 construct: purchased Millipore 14-602-K
Procedure: (§1) The lipid kinase reaction was carried out in a suitable substrate and under ATP conditions, then the activity of the kinase was detected by ADP-Glo™ kit in two steps. Step 1: the kinase reaction was terminated, in which the residual ATP was completely removed and only ADP was retained; step 2: kinase detection reagent was added to convert ADP to ATP, accompanied by fluorescein/luciferase reaction. Finally, the fluorescence value output was converted into kinase activity.
(§2) Experimental Materials and Equipment:
(§3) 2) Kit: ADP-Glo™ lipid kinase and PIP2:3PS kit (Promega #V1792)
(§4) The reagent kit contains: 1 mM PIP2:3PS, 10× lipid dilution buffer, 1 M magnesium chloride, 10 mM ATP, 10 mM ADP, ADP-Glo reagent, detection buffer and detection substrate.
(§5) 3) Reaction plate: OptiPlate-384, white and transparent (PerkinElmer #6007299)
(§6) 1) 10× reaction buffer: 500 mM HEPES, pH 7.5, 500 mM NaCl, […]; BSA: 10% stock solution, self-made
(§7) 2) Final test system conditions: 1× reaction system: 50 mM of HEPES, 50 mM of NaCl, 3 mM of MgCl2, 0.01% BSA (freshly prepared on the day of experiment), 1% DMSO (v/v)+/−compound
(§8) 3) Reaction system: 3 μL of mixture of enzyme and substrate (1:1)+2 μL of ATP/MgCl2 mixture+5 μL of ADP-Glo reagent+10 μL of detection reagent.
(§9) The specific experimental operations were as follows: […]
(§10) (16) Fluorescence values were measured on the Envision instrument.

[2] = target: T2, PI3Kγ (Homo sapiens, UniProt P48736); test: In vitro enzymatic activity test (ADP-Glo lipid kinase), PI3Kγ; type: biochemical; conditions: inhibitory activity against PI3Kα relative to PI3Kγ
T2 construct: purchased Millipore 14-558-K
T2 sequence (P48736 whole entry): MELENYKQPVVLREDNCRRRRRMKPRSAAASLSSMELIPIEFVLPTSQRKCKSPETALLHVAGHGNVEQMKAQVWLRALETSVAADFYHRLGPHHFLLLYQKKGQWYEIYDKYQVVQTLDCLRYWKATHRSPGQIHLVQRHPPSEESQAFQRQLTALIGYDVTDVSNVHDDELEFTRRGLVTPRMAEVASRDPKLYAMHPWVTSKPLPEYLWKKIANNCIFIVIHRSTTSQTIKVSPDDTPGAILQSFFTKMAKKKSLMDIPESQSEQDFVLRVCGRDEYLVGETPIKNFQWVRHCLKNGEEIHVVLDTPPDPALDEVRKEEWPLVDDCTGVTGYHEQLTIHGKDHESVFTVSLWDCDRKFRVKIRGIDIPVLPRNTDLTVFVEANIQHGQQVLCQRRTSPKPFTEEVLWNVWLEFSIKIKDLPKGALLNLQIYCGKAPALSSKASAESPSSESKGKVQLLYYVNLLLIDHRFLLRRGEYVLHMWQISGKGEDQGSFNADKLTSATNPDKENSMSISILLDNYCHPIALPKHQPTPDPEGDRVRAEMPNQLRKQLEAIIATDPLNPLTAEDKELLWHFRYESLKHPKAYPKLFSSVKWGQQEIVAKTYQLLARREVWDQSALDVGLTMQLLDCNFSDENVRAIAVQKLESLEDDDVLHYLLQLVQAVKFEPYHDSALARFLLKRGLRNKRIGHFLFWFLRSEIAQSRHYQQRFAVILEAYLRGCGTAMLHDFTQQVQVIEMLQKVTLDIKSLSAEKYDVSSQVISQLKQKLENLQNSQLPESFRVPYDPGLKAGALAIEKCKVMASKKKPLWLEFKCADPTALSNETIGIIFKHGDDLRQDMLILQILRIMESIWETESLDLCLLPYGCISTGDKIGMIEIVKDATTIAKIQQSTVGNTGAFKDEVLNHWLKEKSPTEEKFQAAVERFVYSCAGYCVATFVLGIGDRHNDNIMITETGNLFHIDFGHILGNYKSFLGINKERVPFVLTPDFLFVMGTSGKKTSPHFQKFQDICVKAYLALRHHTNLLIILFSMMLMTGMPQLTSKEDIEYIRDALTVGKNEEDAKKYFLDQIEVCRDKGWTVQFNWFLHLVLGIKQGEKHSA
Procedure: as §1, §2, §3, §4, §5, §6, §7, §8, §9, §10

[3] = system: Jeko-1; test: Akt phosphorylation inhibition in Jeko-1 cells (high expression of PI3Kδ); type: cell-based; conditions: Jeko-1 cell line with high expression of PI3Kδ
[4] = system: p-AKT; test: Western blot analysis of p-AKT protein expression level in BT474 tumor tissue samples; type: in vivo; conditions: BT-474 nude mouse transplanted tumor model, 0.5 h, 4 h, 24 h after administration
Procedure: 7.1 Protein extraction and quantification
1) Quick-frozen tissue samples were taken out from the refrigerator at −80° C.
2) Operating on dry ice, cutting part of the tissues (about 30 mg), putting them into a 2 mL centrifuge tube with steel balls, and adding 500 μL of cell lysate RIPA (1% protease inhibitor and phosphatase inhibitor had been newly added).
3) Tissue was broken for 5 minutes using the highest frequency of Tissuelyser LT.
4) The tissue lysate was placed on ice for 30 minutes.
5) Centrifuging at 12,000 rpm at 4° C. for 10 minutes and removing the supernatant into a new 1.5 mL centrifuge tube.
6) The protein was quantified by BCA quantitative kit.
7) According to the quantitative results, the protein sample for loading was prepared, the protein concentration of the sample was unified to 2 μg/μL, LDS loading buffer (4×) and sample reducing agent (10×) were added, and the sample was heated at a constant temperature of 100° C. for 10 minutes.
8) Western blotting, or storing the denatured samples in a refrigerator at −80° C.
1) The sample for loading was thawed. […]
5) After the membrane transfer was finished, the membrane was cut according to the molecular weight of the protein to be detected, the membrane was washed with 1×TBST for 3 times and 5 minutes each time, and was shaken at room temperature. […]
13) Chemiluminescence was detected and photographed on the Tanon 5200 multi machine.

T1 sequence (P42336 whole entry): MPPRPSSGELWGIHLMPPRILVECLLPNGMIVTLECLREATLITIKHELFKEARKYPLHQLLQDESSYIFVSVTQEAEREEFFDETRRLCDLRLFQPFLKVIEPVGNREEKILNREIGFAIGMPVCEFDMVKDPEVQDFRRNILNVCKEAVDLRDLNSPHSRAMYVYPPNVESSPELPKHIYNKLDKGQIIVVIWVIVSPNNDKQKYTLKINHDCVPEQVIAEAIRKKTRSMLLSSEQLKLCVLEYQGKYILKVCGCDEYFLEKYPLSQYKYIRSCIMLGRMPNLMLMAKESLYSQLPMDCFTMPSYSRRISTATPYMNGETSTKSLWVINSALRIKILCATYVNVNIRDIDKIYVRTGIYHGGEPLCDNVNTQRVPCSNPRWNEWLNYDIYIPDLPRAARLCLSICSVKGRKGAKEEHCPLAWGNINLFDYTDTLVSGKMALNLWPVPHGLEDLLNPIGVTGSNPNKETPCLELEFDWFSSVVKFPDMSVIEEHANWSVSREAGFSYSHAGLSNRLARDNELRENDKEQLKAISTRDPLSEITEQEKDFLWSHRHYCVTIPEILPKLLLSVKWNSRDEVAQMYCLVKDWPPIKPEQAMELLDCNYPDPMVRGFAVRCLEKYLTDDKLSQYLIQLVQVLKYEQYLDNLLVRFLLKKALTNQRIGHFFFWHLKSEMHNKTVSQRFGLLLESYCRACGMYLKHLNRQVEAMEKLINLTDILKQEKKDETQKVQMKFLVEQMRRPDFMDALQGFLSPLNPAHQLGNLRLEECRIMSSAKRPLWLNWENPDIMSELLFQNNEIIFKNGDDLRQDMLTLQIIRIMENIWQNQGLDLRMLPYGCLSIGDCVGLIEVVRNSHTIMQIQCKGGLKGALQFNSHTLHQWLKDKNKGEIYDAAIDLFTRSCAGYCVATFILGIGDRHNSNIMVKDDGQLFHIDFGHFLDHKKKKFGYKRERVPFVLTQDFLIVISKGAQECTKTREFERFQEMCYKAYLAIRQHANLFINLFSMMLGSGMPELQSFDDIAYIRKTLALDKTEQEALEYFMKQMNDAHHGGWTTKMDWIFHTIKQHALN
T1 sequence (P27986 whole entry partner): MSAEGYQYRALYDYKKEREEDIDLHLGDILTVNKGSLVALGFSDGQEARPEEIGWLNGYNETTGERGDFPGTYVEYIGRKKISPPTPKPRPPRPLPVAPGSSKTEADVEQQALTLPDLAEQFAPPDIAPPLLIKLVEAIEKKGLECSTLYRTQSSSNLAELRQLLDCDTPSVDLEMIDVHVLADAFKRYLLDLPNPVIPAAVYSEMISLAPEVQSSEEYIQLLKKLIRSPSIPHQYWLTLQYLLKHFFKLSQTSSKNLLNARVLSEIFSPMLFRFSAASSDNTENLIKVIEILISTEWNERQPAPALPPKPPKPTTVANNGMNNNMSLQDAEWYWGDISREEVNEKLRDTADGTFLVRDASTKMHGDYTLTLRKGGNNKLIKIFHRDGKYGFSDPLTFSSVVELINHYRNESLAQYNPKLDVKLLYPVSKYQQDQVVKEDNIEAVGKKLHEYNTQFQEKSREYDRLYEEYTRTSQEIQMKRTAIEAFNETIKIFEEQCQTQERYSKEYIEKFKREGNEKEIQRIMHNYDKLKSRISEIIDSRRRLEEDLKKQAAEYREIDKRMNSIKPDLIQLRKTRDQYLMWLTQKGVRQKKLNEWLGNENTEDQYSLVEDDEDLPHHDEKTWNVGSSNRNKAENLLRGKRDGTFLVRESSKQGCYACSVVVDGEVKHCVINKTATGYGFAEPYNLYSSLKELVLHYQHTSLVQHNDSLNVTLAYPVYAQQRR

IC50 [1]: 1.8 nM | Selectivity PI3Kα/γ (kinase) [2]: 6.61 times
SMILES: CNC(=O)[C@H](C)Cn1cnc2ccc(-c3cnc(OC)c(NS(=O)(=O)c4ccc(F)cc4F)c3)cc2c1=O
Selectivity PI3Kα over PI3Kδ, Akt phosphorylation inhibitory activity in cells [3]: 23.0 times | Akt phosphorylation level downstream of PI3K in tumor tissue (Western blot, FIG. 10) [4]: significantly inhibit
